Measurements from US20230114946A1, “MESOSCALE NANOPARTICLES FOR SELECTIVE TARGETING TO THE KIDNEY AND METHODS OF THEIR THERAPEUTIC USE” (Memorial Sloan Kettering Cancer Center, priority 2015, published 2023).

Test system: human kidney proximal tubular epithelial cell line HK-2
Test: In vitro nanoparticle uptake
Format: cell-based
Conditions: inhibitor of clathrin/caveolin-mediated endocytosis
Protocol: The following cell lines were used to determine uptake of anionic and cationic nanoparticles in vitro: MCF-7 human breast adenocarcinoma (ATCC; Manassas, Va.), SK-RC-48 human clear cell renal cell carcinoma (ccRCC) (Weill Cornell Medical College; New York, N.Y.), bEND3 mouse brain endothelial (ATCC), endothelial cell line EA-926, and human kidney proximal tubular epithelial cell line HK-2. MCF-7 cells were cultured in Dulbecco's Modified Eagle Medium (DMEM) with penicillin (10,000 U/mL)/streptomycin (10,000 U/mL)/glutamine (29.2 mg/mL) (Gibco; Carlsbad, Calif.), 0.01 mg/mL human recombinant insulin (Gibco), and 10% fetal bovine serum (FBS) (Gibco); SK-RC-48 were cultured in DMEM with 1× penicillin/streptomycin/glutamine and 10% FBS; and bEND3 cells in the same plus 1% glutaMAX (Gibco). HK-2 cells were cultured in Keratinocyte Serum Free Media (Gibco). EA-926 cells were cultured in RPMI-1640 medium (Gibco) supplemented with 10% FBS. Cells were passaged approximately weekly and media changed every 2-3 days. Cells were seeded into a 6-well cell culture dish for uptake studies. […]
Cells were incubated with 100 μg/mL NPs in 1 mL of their respective complete medias for 30 minutes. […] Cells were imaged with a fluorescence microscope using Cy5 filters.

O=C(N/N=C/c1ccc(O)c(O)c1)c1cc2ccccc2cc1O [Dynasore]
inhibition of MNP uptake into HK-2 cells: can be inhibited
